What was measured:
Assay type in all cases: in vivo
[1] = test system: Orobanche cumana Wallr. seeds (race 'F'); assay: Germination of preconditioned Orobanche cumana seeds on glass fiber filter paper in petri dishes; conditions: Table 5; 1.0 mg l^-1; seed lot IN153; mean, N = 5 x 100 seeds
[2] = test system: Orobanche cumana Wallr. seeds (race 'F'); assay: as above; conditions: for Germination (%): mean, N = 5 x 100 seeds; for Germination inducing effect on Orobanche cumana seeds (summary in words): summary of Tables 3 to 6
Procedure: The effect of compounds of Formula (I) on germination of Orobanche cumana Wallr. seeds was evaluated on glass fiber filter paper (GFFP) in petri dishes. Seeds were preconditioned at moisture and suitable temperature to become responsive to the specific chemical germination stimulants.
Test compounds were dissolved in DMSO (10 000 mg 1^−1) and stored at room temperature in a desiccators with desiccants. The stock solutions were dissolved with deionised water to the appropriate final test concentration.
Seeds of O. cumana race ‘F’ were collected from a sunflower field in Manzanilla (Seville, Spain) in 2006 (IN146) and 2008 (IN153), respectively and stored at room temperature. To separate seeds from heavy organic debris, a modified sucrose floatation technique as described by Hartman & Tanimonure (Plant Disease (1991), 75, p. 494) was applied. Seeds were filled into a separation funnel and stirred in water. When seeds floated to the surface, the water fraction containing heavy debris was discarded. Seeds were re-suspended in 2.5M sucrose solution (specific gravity of 1.20) and heavy debris was allowed to settle down for 60 min. After removing debris, seeds were disinfected in 1% sodium hypochlorite solution and 0.025% (v/v) Tween 20 for 2 min. The seeds were decanted onto two layers of cheesecloth, rinsed with sterile deionised water and re-suspended in sterile deionised water. Two ml of the seed suspension containing approximately 150-400 seeds were spread evenly on two layers of sterile glass fiber filter paper disc ([…]) in Petri dishes (Ø9 cm). After wetting the discs with 3 ml sterile deionised water, petri dishes were sealed with parafilm. Seeds were incubated for 10 days at 20° C. in the dark for seed conditioning. The upper disc with conditioned seeds was briefly dried, transferred to a petri dish lined with a dry GFFP disc, and wetted with 6 ml of the appropriate test solution. The compounds of formula (I) were tested at concentrations of 0.001, 0.01, and 0.1 mg 1^−1. The strigolactone analogue GR24 was included as positive control and 0.001% DMSO as negative control. All treatments were tested in five replicates. Seeds were re-incubated at 20° C. in the dark and examined for germination 10 days later. The radicles of germinated seeds were stained for 5 min with blue ink (MIGROS, Switzerland) in 5% acetic acid according to Long et al. Seed Science Research (2008), 18, p. 125). After staining, seeds were photographed using a camera stand mounted with a digital SLR camera (Canon EOS 5D). Germination of 100 seeds per replicate was evaluated on digital images. Seeds were considered germinated when the radicle protruded from the seed coat.

[3] = test system: Brassica oleracea cv Botrytis (common cauliflower) seeds; assay: Standard paper germination test for Brassica (cauliflower seeds, suboptimal conditions); conditions: 25 μM, 20° C., dark; for stimulation (extra germination compared to the DMSO treatment, expressed as percentage of the DMSO treatment): tropical cauliflower 3C150, seed batch 11B295; for acceleration (hours faster than the DMSO treatment to reach 50% of total germination) / t50 (time needed to reach 50% of total germination): tropical cauliflower 3C150, seed batch 11B552
Procedure: The effect of compounds of Formula (I) on the germination of Brassica oleracea cv Botrytis or common cauliflower was tested on two types of cauliflowers: temperate types and tropical types. These two types were chosen because they display different sensitivities to the light conditions and temperature during germination. Germination of a sensitive temperate type is inhibited by light at 10° C. while for the tropical types germination at 20° is stimulated by the presence of light.
The temperate seed batches tested are part of commercially produced seed batches of various varieties which are known to be sensitive to light at 10° C. These seeds were harvested and cleaned according standard commercial procedures. Ready seed batches were used (Ready indicates the processing level of these seeds: they have been cleaned and sized but received no other treatments). The tropical seed batches tested are part of seed batches produced as basic seed (for maintenance of the parental line) and were processed accordingly.
Germination was assessed using the standard paper germination test for Brassica: Fifty seeds were placed on blue germination paper, which was moistened with the appropriate solutions, in closed oblong germination boxes. Each condition was tested in duplo. Germination boxes were placed in controlled germination cabinets with the appropriate temperature and light conditions. Germination of seeds was counted at regular intervals. Seeds were considered to be germinated when the radical had protruded the testa and endosperm (radical size approximately 1 mm). Germination kinetics were analyzed using the Germinator analysis tool in order to obtain the parameters: Gmax (maximum germination) and t50 (time needed to reach 50% of the Gmax). The Germinator analysis tool is an add-in in for excel developed by the University of Wageningen: Joosen, R. V. L., J. Kodde, et al. (2010). (“Germinator: A Software Package for High-Throughput Scoring and Curve Fitting of Arabidopsis Seed Germination.” The Plant Journal 62(1): 148-159.)
Test compounds were dissolved in DMSO at a concentration of 50 mM and stored at −20° C. The strigolactone analogue GR24 (commercially available as a racemic mixture of 2 diastereoisomers, referred to as “synthetic strigolactone GR-24” and first prepared by Johnson A. W. & all, Journal of the Chemical Society, Perkin Transactions 1, 1981, page 1734-1743) was included as positive control. Germination solutions were prepared by diluting the stock solutions with demineralized water till 25 μM. As control solutions demineralized water and a 0.05% v/v DMSO solution were used.

[4] = Table 5, 0.01 mg l^-1, seed lot IN153
[5] = Table 5, 0.1 mg l^-1, seed lot IN153
[6] = Table 7, tropical cauliflower 3C150, seed batch 11B295 (Chili 2011)
[7] = Table 8, tropical cauliflower 3C150, seed batch 11B552 (South Africa 2010)
[8] = Table 3, 0.001 mg l^-1, seed lot IN146, 10 days at 20° C. in the dark
[9] = Table 3, 0.01 mg l^-1, seed lot IN146
[10] = Table 3, 0.1 mg l^-1, seed lot IN146
[11] = Table 4, 0.001 mg l^-1, seed lot IN153
[12] = Table 4, 0.01 mg l^-1, seed lot IN153
[13] = Table 4, 0.1 mg l^-1, seed lot IN153
[14] = Table 6, 0.001 mg l^-1, seed lot IN153
[15] = Table 6, 0.01 mg l^-1, seed lot IN153
[16] = Table 6, 0.1 mg l^-1, seed lot IN153

| Compound | Germination (%) [1] [%] | Germination (%) [2, 4] [%] | Germination (%) [2, 5] [%] | Germination inducing effect on Orobanche cumana seeds (summary in words) [2] | Gmax (total germination) [3, 6] [%] | stimulation (extra germination compared to the DMSO treatment, expressed as percentage of the DMSO treatment) ([3]; Table 7) [%] | Gmax (total germination) [3, 7] [%] | acceleration (hours faster than the DMSO treatment to reach 50% of total germination) ([3]; Table 8) [h] | t50 (time needed to reach 50% of total germination) ([3]; Table 8) [h] | Germination (%) [2, 8] [%] | Germination (%) [2, 9] [%] | Germination (%) [2, 10] [%] | Germination (%) [2, 11] [%] | Germination (%) [2, 12] [%] | Germination (%) [2, 13] [%] | Germination (%) [2, 14] [%] | Germination (%) [2, 15] [%] | Germination (%) [2, 16] [%] | Germination (%) ([2]; Table 5, 0.001 mg l^-1, seed lot IN153) |
| --- | --- | --- | --- | --- | --- | --- | --- | --- | --- | --- | --- | --- | --- | --- | --- | --- | --- | --- | --- |
| CC1=C[C@@H](O/C=C2/C(=O)N[C@@H]3C4=CCCC[C@H]4C[C@H]23)OC1=O [Compound B2, (3E,3aR,4aS,8bS)-3-[[(2S)-4-methyl-5-oxo-2H-furan-2-yl]oxymethylene]-1,3a,4,4a,5,6,7,8b-octahydroindeno[1,2-b]pyrrol-2-one] | 91.8 | 80.4 | 89.2 | germination inducing effect |  |  |  |  |  |  |  |  |  |  |  |  |  |  |  |
| CC1=CC(O/C=C2/C(=O)N[C@@H]3C4=C(CCCC4(C)C)C[C@H]23)OC1=O (stereo partly drawn) [Compound P1, (3E,3aR,8bS)-8,8-dimethyl-3-[(4-methyl-5-oxo-2H-furan-2-yl)oxymethylene]-3a,4,5,6,7,8b-hexahydro-1H-indeno[1,2-b]pyrrol-2-one] |  |  |  | germination inducing effect | 55.0 | 80.0 | 95.0 | 6.6 | 74.3 | 88 | 88 | 88.4 |  |  |  |  |  |  |  |
| CC1=C[C@H](O/C=C2/C(=O)N[C@@H]3C4=CCCC[C@H]4C[C@H]23)OC1=O [Compound P2, (3E,3aR,4aS,8bS)-3-[[(2R)-4-methyl-5-oxo-2H-furan-2-yl]oxymethylene]-1,3a,4,4a,5,6,7,8b-octahydroindeno[1,2-b]pyrrol-2-one] |  |  |  | germination inducing effect |  |  |  |  |  |  |  |  | 92.6 | 91.0 | 91.0 |  |  |  |  |
| CC1=CC(O/C=C2/C(=O)N[C@@H]3C4=CCC[C@H]4C[C@H]23)OC1=O (some centres unmarked) [Compound P4, 3E 3-[[4-methyl-5-oxo-2H-furan-2-yl]oxymethylene]-1,3a,4,4a,5,6,7b-hexahydropentaleno[1,2-b]pyrrol-2-one] |  |  |  | germination inducing effect |  |  |  |  |  |  |  |  |  |  |  | 73.4 | 82.6 | 68.4 |  |
| CC1=C[C@H](O/C=C2/C(=O)N(C(=O)OC(C)(C)C)[C@@H]3C4=CCC[C@H]4C[C@H]23)OC1=O [Compound P5, Tert-butyl (3E,3aR,4aS,7bS)-3-[[4-methyl-5-oxo-2H-furan-2-yl]oxymethylene]-2-oxo-3a,4,4a,5,6,7b-hexahydropentaleno[1,2-b]pyrrole-1-carboxylate] |  |  |  |  |  |  |  |  |  |  |  |  |  |  |  | 90.6 | 80.8 | 89.6 |  |
| CC1=C[C@H](O/C=C2/C(=O)O[C@@H]3c4ccccc4C[C@H]23)OC1=O [GR24, reference compound] |  | 86.6 | 95.2 |  | 73.0 | 140.0 | 100.0 | 8.7 | 72.2 | 20.4 | 61.0 | 86.2 | 67 | 65 | 78.4 | 26 | 51 | 84.2 | 88 |
